What all share (format): cell-based, human
For data set [1], the system named is target gene mRNA in U251 cells. As to the kind of experiment: Knockdown by RNAi, QPCR, U251 cells. Conditions: U251, 24 hrs post transfection, relative to missense control. The procedure: (§1) These siRNA oligos are initially tested for efficacy in a cell line in which the gene is expressed for example in the Hela, U251, TF1 or DU145 cell lines. Cells are plated at a density of between 7.5-10×10^4 in each well of a 6 well plate and incubated at 37° C. overnight in DMEM culture medium (1× Dulbeccos modified Eagles medium (Sigma D2554), 0.004% folic acid, 4 mM L-glutamine, 0.37% sodium bicarbonate, 0.1 mM sodium pyruvate) containing 10% fetal calf serum (FCS). 2 μg of duplex siRNA is transfected into cells using DMRIE-C reagent (Invitrogen 10459-014) according to methods described in U.S. Patent Application No. 60/498,488. In brief, to prepare 1 ml of a transfection solution 2 μg of siRNA duplex in added to 1 ml of Optimem (Gibco), to which 8 μl of DMRIE C reagent is added. Transfection mix is added directly to the cells and incubated for 4 hrs at 37° C. Post this 4 hr incubation, transfection solution is removed and cells are refed with fresh culture medium and incubated for a further 24 hrs. An additional medium change is required at this point to minimise toxicity of the transfection procedure. Cells are harvested at 24 or 48 hrs post transfection for analysis of mRNA expression. […]
(§2) After DMRIE transfections with siRNA Oligos against the apoptosis associated genes identified herein, or controls, cells are harvested at 24 or 48 hours post transfection as stated previously. […] RNA is quantified by spectrophotometric analysis and 1 μg is reverse transcribed into cDNA using SuperScriptII RNAseH-Reverse Transcriptase (Invitrogen 18064-014). […] QPCR primers are designed to amplify a PCR product of approximately 100 to 300 nucleotides in length from the CDS, following the guidelines outlined in the Quantitect SYBR Green PCR handbook from Qiagen.
(§3) Two template standards are used for quantitative PCR assessment of mRNA levels: • 1. A control RPS13 i.e. Ribosomal Protein Sub unit 13 (NM_001017) amplified PCR product diluted to [1000,100,10,1 and 0.1 fg] respectively, used to quantify the level of transcript; • 2. […]

A further data set has as its system U251 cells. The data set is described as follows: Anchorage Independence/Soft Agar Assay, U251. Particulars: soft agar, experiment n = 1. The procedure:
The Anchorage Independence/Soft Agar Assay allows assessment of the influence of modulation of gene expression on clonal tumouroid formation by observing and quantifying tumouroid morphology and colony number over an extended period of logarithmic growth thereby ascertaining any cell death is induced.
Cells are seeded into a 6-well plate and allowed to adhere overnight at 37° C. in a humidified atmosphere containing 5% CO2 in air. Cells are next transfected with siRNA Oligomers, at a concentration of 2 μg, against the genes of interest. Transfections continued for 4 hrs after which the transfection solution is removed and cells are refed with fresh medium and allowed incubate overnight. Transfected cells are next harvested for seeding into soft agar assay as described below. […] Colonies formed are subsequently stained with Crystal Violet, their morphology is assessed and colonies formed are enumerated at a 4× magnification.
The cytotoxic effect of each gene is determined by a reduction in colony number compared to our MS control, but any influence on the morphology of the colony is also noted.
Examples of genes with a cytotoxic effect on knockdown as detected by the soft agar assay are outlined in Table 14. […]

Data set [2] has as its system target gene mRNA in DU145 cells. The data set is described as follows: Knockdown by RNAi, QPCR, DU145 cells. Conditions: DU145, 24 hrs post transfection, relative to missense control. The procedure: as §1, §2, §3

Take “siRNA P14KB: sense GCUACGGAAGCUGAUCCUCtt, antisense GAGGAUCAGCUUCCGUAGCtt (sense GCUACGGAAGCUGAUCCUCTT; antisense GAGGAUCAGCUUCCGUAGCTT; chemistry not given here)”: the “% Knockdown by RNAi, U251” value in data set [1] worked out at 36%.

Regarding “siRNA MPSK1: sense GGGUUAUGCCCACAGAGACtt, antisense GUCUCUGUGGGCAUAACCCtt (sense GGGUUAUGCCCACAGAGACTT; antisense GUCUCUGUGGGCAUAACCCTT; chemistry not given here)”, the “PERCENTAGE SURVIVAL RELATIVE TO MS, U251, n = 1” value with U251 cells turned out to be 18%.

Regarding “siRNA GRAF: siRNA duplex, sense GCGGAAGUUUGCAGAUUCCtt, antisense GGAAUCUGCAAACUUCCGCtt; same in Tables 9 and 11 (sense GCGGAAGUUUGCAGAUUCCTT; antisense GGAAUCUGCAAACUUCCGCTT; chemistry not given here)”, the “% Knockdown by RNAi, DU145” value in data set [2] is recorded as 84.4%. For “siRNA Survivin: positive control siRNA, sense GAACUGGCCCUUCUUGGAGtt, antisense CUCCAAGAAGGGCCAGUUCtt (sense GAACUGGCCCUUCUUGGAGTT; antisense CUCCAAGAAGGGCCAGUUCTT; chemistry not given here) [reference compound]”, the “% Knockdown by RNAi, U251” value in data set [1] is 47%. With “siRNA FLT4: sense GUACGGCAACCUCUCCAACtt, antisense GUUGGAGAGGUUGCCGUACtt (sense GUACGGCAACCUCUCCAACTT; antisense GUUGGAGAGGUUGCCGUACTT; chemistry not given here)”, the “% Knockdown by RNAi, DU145” value in data set [2] is reported as 85%. Regarding “siRNA NTKL: siRNA duplex, sense UGUGGAGCUGAUGAAGCACtt, antisense GUGCUUCAUCAGCUCCACAtt; same in Tables 9 and 11 (sense UGUGGAGCUGAUGAAGCACTT; antisense GUGCUUCAUCAGCUCCACATT; chemistry not given here)”, in data set [1], the “% Knockdown by RNAi, U251” value was 37%. Turning to “siRNA MAK: sense GAAGCCAAGCAUGGGUGUUtt, antisense AACACCCAUGCUUGGCUUCtt (sense GAAGCCAAGCAUGGGUGUUTT; antisense AACACCCAUGCUUGGCUUCTT; chemistry not given here)”, in data set [2], the “% Knockdown by RNAi, DU145” value amounted to 19%.

For the origin of these results see US20050019746A1, “Apoptosis-related kinase/GPCRs” (EiRx Therapeutics Limited, priority 2003, published 2005).
